In US11999746B2, “Compounds” (GlaxoSmithKline Intellectual Property Development Limited, priority 2014, dated 2024):

Tests used:
[1] = molecular target: T1, recombinant human Lp-PLA2 (Homo sapiens, UniProt Q13093); test: (1a) PED6 assay, recombinant human Lp-PLA2 (rhLp-PLA2); format: biochemical; conditions: Examples 1-167 and 413-430 were tested here, one experiment or average of multiple experiments, read-out: rhLp-PLA2 (pIC50) (converted)
T1 sequence (Q13093 22-441): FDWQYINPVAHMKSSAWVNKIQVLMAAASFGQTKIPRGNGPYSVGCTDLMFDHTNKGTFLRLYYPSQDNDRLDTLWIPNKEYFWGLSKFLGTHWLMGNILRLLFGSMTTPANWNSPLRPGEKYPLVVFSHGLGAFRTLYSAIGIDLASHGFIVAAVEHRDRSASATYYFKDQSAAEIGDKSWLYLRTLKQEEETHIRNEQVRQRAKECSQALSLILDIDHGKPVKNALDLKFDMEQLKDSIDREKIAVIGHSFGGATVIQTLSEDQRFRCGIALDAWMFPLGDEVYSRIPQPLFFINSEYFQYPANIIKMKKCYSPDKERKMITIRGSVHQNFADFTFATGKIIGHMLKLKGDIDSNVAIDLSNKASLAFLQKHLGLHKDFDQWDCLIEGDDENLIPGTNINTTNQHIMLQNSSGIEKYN
Outline: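 PED6 (2 μM final after 1:1 addition of 4 μM stock) cleavage by rhLp-PLA2 (4 nM working solution) in 50 mM HEPES pH 7.4, 150 mM NaCl, 1 mM CHAPS; compounds preincubated with enzyme 30 minutes, reaction 20 min at room temperature. Fluorescence at ex 480/em 540; pIC50 from curve fit.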

Lp-PLA2 in human plasma = molecular target: T2, Lp-PLA2 in human plasma (Homo sapiens, UniProt Q13093); test: (3a) Lp-PLA2 human plasma Thio-PAF assay; format: biochemical; conditions: (3a) Thio-PAF assay, pooled human plasma; Examples 1-265 and 413-430 were tested here; read-out: pIC50 in the Lp-PLA2 human plasma assay (converted)
T2 construct: from tissue; host or cells: pooled human plasma
T2 sequence (Q13093 22-441): T1 sequence (Q13093 22-441)
Outline: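 Endogenous Lp-PLA2 activity in frozen pooled human plasma measured as thiol release from 2-thio-PAF, detected by CPM fluorescence (ex 380/em 485). Compound preincubation 30 min; 2-min reaction in HEPES pH 7.4 buffer with NEM, stopped with 5% TFA, read 40 min later at room temperature; values as pIC50.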

SMILES	IC50 [1]	IC50 (Lp-PLA2 in human plasma)
O=c1nc(OCc2ccc(F)c(F)c2)cc2n1C[C@@H]1CCCCN21 [Example E31, (S)-3-((3,4-Difluorobenzyl)oxy)-6,7,8,9,9a,10-hexahydro-1H-pyrido[1′,2′:3,4]imidazo[1,2-c]pyrimidin-1-one]	≤ 100 nM	≤ 10000 nM
O=c1nc(OCc2cc(F)c(F)c(F)c2)cc2n1C[C@@H]1CCCCN21 [Example E32, (S)-3-((3,4,5-Trifluorobenzyl)oxy)-6,7,8,9,9a,10-hexahydro-1H-pyrido[1′,2′:3,4]imidazo[1,2-c]pyrimidin-1-one]	≤ 100 nM	≤ 10000 nM
N#Cc1cccc(COc2cc3n(c(=O)n2)C[C@@H]2CCCCN32)c1 [Example E33, (S)-3-(((1-Oxo-6,7,8,9,9a,10-hexahydro-1H-pyrido[1′,2′:3,4]imidazo[1,2-c]pyrimidin-3-yl)oxy)methyl)benzonitrile]	≤ 100 nM	≤ 10000 nM
O=c1nc(OCc2ccc(F)cc2)cc2n1C[C@@H]1CCCCN21 [Example E34, (S)-3-((4-Fluorobenzyl)oxy)-6,7,8,9,9a,10-hexahydro-1H-pyrido[1′,2′:3,4]imidazo-[1,2-c] pyrimidin-1-one]	≤ 100 nM	≤ 10000 nM
O=c1nc(OCc2cc(F)cc(F)c2)cc2n1C[C@@H]1CCCCN21 [Example E35, (S)-3-((3,5-Difluorobenzyl)oxy)-6,7,8,9,9a,10-hexahydro-1H-pyrido[1′,2′:3,4]imidazo[1,2-c]pyrimidin-1-one]	≤ 100 nM	≤ 10000 nM
O=c1nc(OCCc2cccs2)cc2n1C[C@@H]1CCCCN21 [Example E36, (S)-3-(2-(Thiophen-2-yl)ethoxy)-6,7,8,9,9a,10-hexahydro-1H-pyrido[1′,2′:3,4]imidazo[1,2-c]pyrimidin-1-one]	≤ 100 nM	≤ 10000 nM
O=c1nc(OCc2cc(F)c(Oc3ccnc(C(F)(F)F)c3)c(F)c2)cc2n1CC1CCCCN21 (stereo not shown) [Example E37, 3-((3,5-difluoro-4-((2-(trifluoromethyl)pyridin-4-yl)oxy)benzyl)oxy)-6,7,8,9,9a,10-hexahydro-1H-pyrido[1′,2′:3,4]imidazo[1,2-c]pyrimidin-1-one]	≤ 1 nM	≤ 100 nM
O=c1nc(OCc2ccc(Oc3ccc(C(F)(F)F)nc3)c(F)c2)cc2n1CC1CCCCN21 (stereo not shown) [Example E38, 3-((3-Fluoro-4-((6-(trifluoromethyl)pyridin-3-yl)oxy)benzyl)oxy)-6,7,8,9,9a,10-hexahydro-1H-pyrido[1′,2′:3,4]imidazo[1,2-c]pyrimidin-1-one]	≤ 1 nM	≤ 100 nM
O=c1nc(OCc2cc(F)c(Oc3ccc(C(F)(F)F)nc3)c(F)c2)cc2n1CC1CCCCN21 (stereo not shown) [Example E39, 3-((3,5-Difluoro-4-((6-(trifluoromethyl)pyridin-3-yl)oxy)benzyl)oxy)-6,7,8,9,9a,10-hexahydro 1H-pyrido[1′,2′:3,4]imidazo[1,2-c]pyrimidin-1-one]	≤ 1 nM	≤ 100 nM
O=c1nc(OCc2ccc(Oc3ccnc(C(F)(F)F)c3)c(F)c2)cc2n1C[C@@H]1CCCCN21 [Example E40, (S)-3-((3-Fluoro-4-((2-(trifluoromethyl)pyridin-4-yl)oxy)benzyl)oxy)-6,7,8,9,9a,10-hexahydro-1H-pyrido[1′,2′:3,4]imidazo[1,2-c]pyrimidin-1-one]	≤ 1 nM	≤ 100 nM
O=c1nc(OCc2cc(F)c(Oc3ccnc(C(F)(F)F)c3)c(F)c2)cc2n1CC1CCCCN21 (stereo not shown) [Example E41]	≤ 1 nM	≤ 100 nM
O=c1nc(OCc2ccc(Oc3cncc(C(F)(F)F)c3)c(F)c2)cc2n1C[C@@H]1CCCCN21 [Example E42, (S)-3-((3-fluoro-4-((5-(trifluoromethyl)pyridin-3-yl)oxy)benzyl)oxy)-6,7,8,9,9a,10-hexahydro-1H-pyrido[1′,2′:3,4]imidazo[1,2-c]pyrimidin-1-one]	≤ 1 nM	≤ 100 nM
O=c1nc(OCc2ccc(Oc3cnc(C(F)(F)F)nc3)c(F)c2)cc2n1CC1CCCCN21 (stereo not shown) [Example E43, 3-((3-fluoro-4-((2-(trifluoromethyl)pyrimidin-5-yl)oxy)benzyl)oxy)-6,7,8,9,9a,10-hexahydro-1H-pyrido[1′,2′:3,4]imidazo[1,2-c]pyrimidin-1-one]	≤ 100 nM	≤ 100 nM
O=c1nc(OCc2ccc(Oc3ccnc(C(F)(F)F)c3)c(F)c2)cc2n1CC1CCCCN21 (stereo not shown) [Example E44, 3-((3-Fluoro-4-((2-(trifluoromethyl)pyridin-4-yl)oxy)benzyl)oxy)-6,7,8,9,9a,10-hexahydro-1H-pyrido[1′,2′:3,4]imidazo[1,2-c]pyrimidin-1-one]	≤ 1 nM	≤ 100 nM
O=c1nc(OCc2cc(F)c(Oc3ccnc(C(F)(F)F)c3)c(F)c2)cc2n1CC1CCCCN21 (stereo not shown) [Example E45, 3-((3,5-Difluoro-4-((2-(trifluoromethyl)pyridin-4-yl)oxy)benzyl)oxy)-6,7,8,9,9a,10-hexahydro-1H-pyrido[1′,2′:3,4]imidazo[1,2-c]pyrimidin-1-one]	≤ 1 nM	≤ 100 nM
O=c1nc(OCc2ccc(Oc3cnc(C(F)(F)F)nc3)c(F)c2)cc2n1CC1CCCCN21 (stereo not shown) [Example E46, 3-((3-Fluoro-4-((2-(trifluoromethyl)pyrimidin-5-yl)oxy)benzyl)oxy)-6,7,8,9,9a,10-hexahydro-1H-pyrido[1′,2′:3,4]imidazo[1,2-c]pyrimidin-1-one]	≤ 1 nM	≤ 100 nM
O=c1nc(OCc2ccc(Oc3cncc(C(F)(F)F)c3)c(F)c2)cc2n1CC1CCCCN21 (stereo not shown) [Example E47, 3-((3-Fluoro-4-((5-(trifluoromethyl)pyridin-3-yl)oxy)benzyl)oxy)-6,7,8,9,9a,10-hexahydro-1H-pyrido[1′,2′:3,4]imidazo[1,2-c]pyrimidin-1-one]	≤ 1 nM	≤ 100 nM
O=c1nc(OCc2ccc(Oc3ccc(C(F)(F)F)nc3)c(F)c2)cc2n1CC1CCCCN21 (stereo not shown) [Example E48, 3-((3-Fluoro-4-((6-(trifluoromethyl)pyridin-3-yl)oxy)benzyl)oxy)-6,7,8,9,9a,10-hexahydro-1H-pyrido[1′,2′:3,4]imidazo[1,2-c]pyrimidin-1-one]	≤ 1 nM	≤ 10000 nM
O=c1nc(OCc2cc(F)c(Oc3ccc(C(F)(F)F)nc3)c(F)c2)cc2n1CC1CCCCN21 (stereo not shown) [Example E49, 3-((3,5-difluoro-4-((6-(trifluoromethyl)pyridin-3-yl)oxy)benzyl)oxy)-6,7,8,9,9a,10-hexahydro-1H-pyrido[1′,2′:3,4]imidazo[1,2-c]pyrimidin-1-one]	≤ 1 nM	≤ 100 nM
Cn1cc(Oc2c(F)cc(COc3cc4n(c(=O)n3)C[C@@H]3CCCCN43)cc2F)cn1 [Example E50, (S)-3-((3,5-difluoro-4-((1-methyl-1H-pyrazol-4-yl)oxy)benzyl)oxy)-6,7,8,9,9a,10-hexahydro-1H-pyrido[1′,2′:3,4]imidazo[1,2-c]pyrimidin-1-one]	≤ 100 nM	≤ 10000 nM
Cn1cc(Oc2ccc(COc3cc4n(c(=O)n3)C[C@@H]3CCCCN43)cc2F)cn1 [Example E51, (S)-3-((3-fluoro-4-((1-methyl-1H-pyrazol-4-yl)oxy)benzyl)oxy)-6,7,8,9,9a,10-hexahydro-1H-pyrido[1,2′:3,4]imidazo[1,2-c]pyrimidin-1-one]	≤ 100 nM	≤ 10000 nM
O=c1nc(OCc2cccc(F)c2)cc2n1C[C@H]1CCCCN21 [Example E52, (R)-3-((3-Fluorobenzyl)oxy)-6,7,8,9,9a,10-hexahydro-1H-pyrido[1′,2′:3,4]imidazo[1,2-c] pyrimidin-1-one]	≤ 100 nM	≤ 100 nM
O=c1nc(OCc2cc(F)cc(F)c2)cc2n1C[C@H]1CCCCN21 [Example E53, (R)-3-((3,5-Difluorobenzyl)oxy)-6,7,8,9,9a,10-hexahydro-1H-pyrido[1′,2′:3,4]imidazo[1,2-c] pyrimidin-1-one]	≤ 100 nM	≤ 10000 nM
O=c1nc(OCc2cc(F)c(F)c(F)c2)cc2n1C[C@H]1CCCCN21 [Example E54, (R)-3-((3,4,5-Trifluorobenzyl)oxy)-6,7,8,9,9a,10-hexahydro-1H-pyrido[1′,2′:3,4]imidazo[1,2-c]pyrimidin-1-one]	≤ 100 nM	≤ 100 nM
O=c1nc(OCc2ccc(F)cc2F)cc2n1C[C@H]1CCCCN21 [Example E55, (R)-3-((2,4-Difluorobenzyl)oxy)-6,7,8,9,9a,10-hexahydro-1H-pyrido[1′,2′:3,4]imidazo[1,2-c] pyrimidin-1-one]	≤ 100 nM	≤ 10000 nM
O=c1nc(OCc2cccc(F)c2F)cc2n1C[C@H]1CCCCN21 [Example E56, (R)-3-((2,3-Difluorobenzyl)oxy)-6,7,8,9,9a,10-hexahydro-1H-pyrido[1′,2′:3,4]imidazo[1,2-c] pyrimidin-1-one]	≤ 100 nM	≤ 10000 nM
